Results: the CheMixHub ionic liquid set

Test: xn = mol fraction of the nth substance listed

C[N+](C)(C)CCC[N+]1(C)CCCCC1.N#C[N-]C#N.N#C[N-]C#N + CC#N
100 kPa
Conditions	viscosity [mPa·s]
288.15 K, x1 = 0.7996	2305
293.15 K, x1 = 0.0999	3.69
293.15 K, x1 = 1	4503
298.15 K, x1 = 0.3001	37.7
298.15 K, x1 = 0.5002	181
298.15 K, x1 = 1	2819
303.15 K, x1 = 0.3998	69.5
308.15 K, x1 = 0.0999	2.98
308.15 K, x1 = 0.3001	26.5
308.15 K, x1 = 0.3998	56.5
308.15 K, x1 = 0.5002	109
313.15 K, x1 = 0.2001	9.24
313.15 K, x1 = 0.8998	545
318.15 K, x1 = 0.0999	2.68
318.15 K, x1 = 0.2001	8.26
318.15 K, x1 = 0.5002	70.4
318.15 K, x1 = 0.7001	163
318.15 K, x1 = 1	618
323.15 K, x1 = 0.3001	17.3
323.15 K, x1 = 0.6	91.8
323.15 K, x1 = 0.7001	130
328.15 K, x1 = 0.2001	6.82
328.15 K, x1 = 0.5002	48.7
328.15 K, x1 = 0.6	74.3
333.15 K, x1 = 0.5002	41.6
333.15 K, x1 = 0.8998	183

C[N+](C)(C)CCO.O=S(=O)([N-]S(=O)(=O)C(F)(F)F)C(F)(F)F + CC(O)CO
101 kPa
Conditions	viscosity [mPa·s]
313.15 K, x2 = 0	56.4
313.15 K, x2 = 0.4786	28.6
318.15 K, x2 = 0.4786	23.6
328.15 K, x2 = 0.5867	15.4
333.15 K, x2 = 0	28.6
338.15 K, x2 = 0	24.6
343.15 K, x2 = 0.2189	14.68
343.15 K, x2 = 0.3834	12.15
343.15 K, x2 = 0.8744	6.61
348.15 K, x2 = 0	19.1
